# Data from patent US20260116920A1, “HUMAN TRANSFERRIN RECEPTOR BINDING PEPTIDE” (PEPTIDREAM INC., priority 2021, published 2026).
# Positions of bridges follow the written chain, without caps; N, C: chain ends. Non-standard residues stand in square brackets, D forms with d. Residues, ends and D or L forms follow the SMILES beside them. Trp(1-CH2COOH) = N[C@@H](Cc1cn(CC(=O)O)c2ccccc12)C(=O)O; NMePhe(3-Cl) = CN[C@@H](Cc1cccc(Cl)c1)C(=O)O; 3Pal(6-NH2) = Nc1ccc(C[C@H](N)C(=O)O)cn1; NMeY = CN[C@@H](Cc1ccc(O)cc1)C(=O)O; 3Pal = N[C@@H](Cc1cccnc1)C(=O)O; 4Pal = N[C@@H](Cc1ccncc1)C(=O)O; PEG4 = NCCOCCOCCOCCOCCC(=O)O
# Target: T1, human transferrin receptor (hTfR) (Homo sapiens, UniProt P02786)
# T1 construct: made in house
# T1 sequence (P02786 89-760 limits assumed): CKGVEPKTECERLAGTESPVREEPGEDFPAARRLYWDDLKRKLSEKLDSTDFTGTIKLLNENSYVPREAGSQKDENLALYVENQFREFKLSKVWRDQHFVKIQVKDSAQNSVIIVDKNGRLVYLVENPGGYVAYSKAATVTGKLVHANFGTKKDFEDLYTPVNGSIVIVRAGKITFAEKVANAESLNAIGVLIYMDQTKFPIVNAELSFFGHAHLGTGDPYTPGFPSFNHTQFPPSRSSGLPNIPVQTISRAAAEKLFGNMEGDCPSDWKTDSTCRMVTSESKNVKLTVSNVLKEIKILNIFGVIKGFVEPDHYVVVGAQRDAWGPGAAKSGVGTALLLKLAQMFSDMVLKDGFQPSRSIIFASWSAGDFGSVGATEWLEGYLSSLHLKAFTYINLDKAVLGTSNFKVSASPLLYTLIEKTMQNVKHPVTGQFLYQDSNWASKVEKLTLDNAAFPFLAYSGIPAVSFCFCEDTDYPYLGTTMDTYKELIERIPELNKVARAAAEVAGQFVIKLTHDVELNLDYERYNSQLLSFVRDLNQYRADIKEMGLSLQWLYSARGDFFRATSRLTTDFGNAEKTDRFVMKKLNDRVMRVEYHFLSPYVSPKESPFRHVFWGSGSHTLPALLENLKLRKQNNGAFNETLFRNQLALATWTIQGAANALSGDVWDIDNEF
# Experiment: Evaluation of molecular interaction between transferrin receptor (hTfR) and peptide using surface plasmon resonance (SPR)
# Format: binding
# Settings: surface plasmon resonance, binding to hTfR; KD class symbol; read-out: SPR (KD value)
# In short: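 SPR, single-cycle kinetics; hTfR dimer on NTA chip via Ni capture plus EDC/NHS coupling. Analyte peptide 100, 50, 25, 10, 5 nM. Running buffer: 10 mM HEPES pH 8.0, 150 mM NaCl, 0.05% Tween 20, 0.1% BSA, 1.0% DMSO. KD by least-squares fit.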
row,Kd [nM],Structure (SMILES)
1,1 to 100,CC[C@H](C)[C@@H]1NC(=O)[C@H](Cc2cccnc2)NC(=O)[C@H](Cc2ccc(N)nc2)NC(=O)[C@H](CC(N)=O)NC(=O)[C@H](Cc2cn(CC(=O)O)c3ccccc23)NC(=O)[C@H](C(C)C)NC(=O)[C@H](Cc2cccc(Cl)c2)N(C)C(=O)[C@H](C(C)C)NC(=O)[C@H](C)NC(=O)CSC[C@@H](C(=O)NCCOCCOCCOCCOCCC(N)=O)NC(=O)[C@H](Cc2ccc(O)cc2)N(C)C(=O)[C@H](Cc2ccncc2)NC(=O)[C@H](CCCNC(=N)N)NC(=O)[C@H](CCCNC(=N)N)NC(=O)[C@H]([C@@H](C)CC)NC1=O [compound 49] ({CH2CO}-AV[NMePhe(3-Cl)]V[Trp(1-CH2COOH)]N[3Pal(6-NH2)][3Pal]IIRR[4Pal][NMeY]C[PEG4]-NH2; thioether N-15)
2,1 to 100,CC[C@H](C)[C@@H]1NC(=O)[C@H](Cc2ccc(OC)cc2)NC(=O)[C@H](Cc2ccc(N)nc2)NC(=O)[C@H](CC(N)=O)NC(=O)[C@H](Cc2cn(CC(=O)O)c3ccccc23)NC(=O)[C@H](C(C)C)NC(=O)[C@H](Cc2cccc(Cl)c2)N(C)C(=O)[C@H](C(C)C)NC(=O)[C@H](C)NC(=O)CSC[C@@H](C(=O)NCCOCCOCCOCCOCCC(N)=O)NC(=O)[C@H](Cc2ccc(O)cc2)N(C)C(=O)[C@H](Cc2ccncc2)NC(=O)[C@H](CCCNC(=N)N)NC(=O)[C@H](CCCNC(=N)N)NC(=O)[C@H]([C@@H](C)CC)NC1=O [compound 50]
3,1 to 100,CC[C@H](C)[C@@H]1NC(=O)[C@H](Cc2cccnc2)NC(=O)[C@H](Cc2ccc(O)cc2)NC(=O)[C@H](CC(N)=O)NC(=O)[C@H](Cc2c[nH]c3ccccc23)NC(=O)[C@H](C(C)C)NC(=O)[C@H](Cc2cccc(Cl)c2)N(C)C(=O)[C@H](C(C)C)NC(=O)[C@H](C)NC(=O)CSC[C@@H](C(=O)NCCOCCOCCOCCOCCC(N)=O)NC(=O)[C@H](Cc2ccc(O)cc2)N(C)C(=O)[C@H](Cc2ccncc2)NC(=O)[C@H](CCCNC(=N)N)NC(=O)[C@H](CCCNC(=N)N)NC(=O)[C@H]([C@@H](C)CC)NC1=O [compound 51] ({CH2CO}-AV[NMePhe(3-Cl)]VWNY[3Pal]IIRR[4Pal][NMeY]C[PEG4]-NH2; thioether N-15)
4,1 to 100,CC[C@H](C)[C@@H]1NC(=O)[C@H](Cc2cccnc2)NC(=O)[C@H](Cc2ccc(N)nc2)NC(=O)[C@H](CC(N)=O)NC(=O)[C@H](Cc2c[nH]c3ccccc23)NC(=O)[C@H](C(C)C)NC(=O)[C@H](Cc2cccc(Cl)c2)N(C)C(=O)[C@H](C(C)C)NC(=O)[C@H](C)NC(=O)CSC[C@@H](C(=O)NCCOCCOCCOCCOCCC(N)=O)NC(=O)[C@H](Cc2ccc(O)cc2)N(C)C(=O)[C@H](Cc2ccncc2)NC(=O)[C@H](CCCNC(=N)N)NC(=O)[C@H](CCCNC(=N)N)NC(=O)[C@H]([C@@H](C)CC)NC1=O [compound 52] ({CH2CO}-AV[NMePhe(3-Cl)]VWN[3Pal(6-NH2)][3Pal]IIRR[4Pal][NMeY]C[PEG4]-NH2; thioether N-15)
5,1 to 100,CC[C@H](C)[C@@H]1NC(=O)[C@H](Cc2ccc(OC)cc2)NC(=O)[C@H](Cc2ccc(N)nc2)NC(=O)[C@H](CC(N)=O)NC(=O)[C@H](Cc2c[nH]c3ccccc23)NC(=O)[C@H](C(C)C)NC(=O)[C@H](Cc2cccc(Cl)c2)N(C)C(=O)[C@H](C(C)C)NC(=O)[C@H](C)NC(=O)CSC[C@@H](C(=O)NCCOCCOCCOCCOCCC(N)=O)NC(=O)[C@H](Cc2ccc(O)cc2)N(C)C(=O)[C@H](Cc2ccncc2)NC(=O)[C@H](CCCNC(=N)N)NC(=O)[C@H](CCCNC(=N)N)NC(=O)[C@H]([C@@H](C)CC)NC1=O [compound 53]

# More lines, now with the values behind:
row,Structure (SMILES),Kd [nM]
1,CC[C@H](C)[C@@H]1NC(=O)[C@H](Cc2ccc(OCC(=O)O)cc2)NC(=O)[C@H](Cc2ccc(O)cc2)NC(=O)[C@H](CC(N)=O)NC(=O)[C@H](Cc2cn(CC(=O)O)c3ccccc23)NC(=O)[C@H](C(C)C)NC(=O)[C@H](Cc2cccc(Cl)c2)N(C)C(=O)[C@H](C(C)C)NC(=O)[C@H](C)NC(=O)CSC[C@@H](C(=O)NCC(=O)N[C@H](CCC(=O)O)C(=O)N[C@H](CCC(=O)O)C(=O)N[C@H](CCC(=O)O)C(=O)N[C@H](CO)C(=O)N[C@H](CO)C(=O)N[C@@H](CCCCN=[N+]=[N-])C(N)=O)NC(=O)[C@H](Cc2ccc(O)cc2)N(C)C(=O)[C@H](Cc2ccccc2)NC(=O)[C@H](CCCNC(=N)N)NC(=O)[C@H](CCCNC(=N)N)NC(=O)[C@H]([C@@H](C)CC)NC1=O [compound 40],< 1
2,CC[C@H](C)[C@@H]1NC(=O)[C@H](Cc2ccc(OCC(=O)O)cc2)NC(=O)[C@H](Cc2ccc(O)cc2)NC(=O)[C@H](CC(N)=O)NC(=O)[C@H](Cc2c[nH]c3ccccc23)NC(=O)[C@H](C(C)C)NC(=O)[C@H](Cc2ccccc2)N(C)C(=O)[C@H](C(C)C)NC(=O)[C@H](C)NC(=O)CSC[C@@H](C(=O)NCC(=O)N[C@H](CCC(=O)O)C(=O)N[C@H](CCC(=O)O)C(=O)N[C@H](CCC(=O)O)C(=O)N[C@H](CO)C(=O)N[C@H](CO)C(=O)N[C@@H](CCCCN=[N+]=[N-])C(N)=O)NC(=O)[C@H](Cc2ccc(O)cc2)N(C)C(=O)[C@H](Cc2ccc(O)cc2)NC(=O)[C@H](CCCNC(=N)N)NC(=O)[C@H](CCCNC(=N)N)NC(=O)[C@H]([C@@H](C)CC)NC1=O [compound 41],1 to 100
3,CC[C@H](C)[C@@H]1NC(=O)[C@H](Cc2ccc(OCC(=O)O)cc2)NC(=O)[C@H](Cc2ccc(O)cc2)NC(=O)[C@H](CC(N)=O)NC(=O)[C@H](Cc2cn(CC(=O)O)c3ccccc23)NC(=O)[C@H](C(C)C)NC(=O)[C@H](Cc2ccccc2)N(C)C(=O)[C@H](C(C)C)NC(=O)[C@H](C)NC(=O)CSC[C@@H](C(=O)NCC(=O)N[C@H](CCC(=O)O)C(=O)N[C@H](CCC(=O)O)C(=O)N[C@H](CCC(=O)O)C(=O)N[C@H](CO)C(=O)N[C@H](CO)C(=O)N[C@@H](CCCCN=[N+]=[N-])C(N)=O)NC(=O)[C@H](Cc2ccc(O)cc2)N(C)C(=O)[C@H](Cc2ccc(O)cc2)NC(=O)[C@H](CCCNC(=N)N)NC(=O)[C@H](CCCNC(=N)N)NC(=O)[C@H]([C@@H](C)CC)NC1=O [compound 42],1 to 100
4,CC[C@H](C)[C@@H]1NC(=O)[C@H](Cc2ccc(OC)cc2)NC(=O)[C@H](Cc2ccc(O)cc2)NC(=O)[C@H](CC(N)=O)NC(=O)[C@H](Cc2cn(CC(=O)O)c3ccccc23)NC(=O)[C@H](C(C)C)NC(=O)[C@H](Cc2cccc(Cl)c2)N(C)C(=O)[C@H](C(C)C)NC(=O)[C@H](C)NC(=O)CSC[C@@H](C(=O)NCCOCCOCCOCCOCCC(N)=O)NC(=O)[C@H](Cc2ccc(O)cc2)N(C)C(=O)[C@H](Cc2ccccc2)NC(=O)[C@H](CCCNC(=N)N)NC(=O)[C@H](CCCNC(=N)N)NC(=O)[C@H](CCC(=O)O)NC1=O [compound 43],1 to 100
5,CC[C@H](C)[C@@H]1NC(=O)[C@H](Cc2ccc(OCC(=O)O)cc2)NC(=O)[C@H](Cc2ccc(O)cc2)NC(=O)[C@H](CC(N)=O)NC(=O)[C@H](Cc2cn(CC(=O)O)c3ccccc23)NC(=O)[C@H](C(C)C)NC(=O)[C@H](Cc2cccc(Cl)c2)N(C)C(=O)[C@H](C(C)C)NC(=O)[C@H](C)NC(=O)CSC[C@@H](C(=O)NCCOCCOCCOCCOCCC(N)=O)NC(=O)[C@H](Cc2ccc(O)cc2)N(C)C(=O)[C@H](Cc2ccccc2)NC(=O)[C@H](CCCNC(=N)N)NC(=O)[C@H](CCCNC(=N)N)NC(=O)[C@H]([C@@H](C)CC)NC1=O [compound 44],1 to 100
6,CC[C@H](C)[C@@H]1NC(=O)[C@H](Cc2ccc(OCC(=O)O)cc2)NC(=O)[C@H](Cc2ccc(O)cc2)NC(=O)[C@H](CC(N)=O)NC(=O)[C@H](Cc2c[nH]c3ccccc23)NC(=O)[C@H](C(C)C)NC(=O)[C@H](Cc2ccccc2)N(C)C(=O)[C@H](C(C)C)NC(=O)[C@H](C)NC(=O)CSC[C@@H](C(=O)NCCOCCOCCOCCOCCC(N)=O)NC(=O)[C@H](Cc2ccc(O)cc2)N(C)C(=O)[C@H](Cc2ccc(O)cc2)NC(=O)[C@H](CCCNC(=N)N)NC(=O)[C@H](CCCNC(=N)N)NC(=O)[C@H]([C@@H](C)CC)NC1=O [compound 45],1 to 100
7,CC[C@H](C)[C@@H]1NC(=O)[C@H](Cc2ccc(OCC(=O)O)cc2)NC(=O)[C@H](Cc2ccc(O)cc2)NC(=O)[C@H](CC(N)=O)NC(=O)[C@H](Cc2cn(CC(=O)O)c3ccccc23)NC(=O)[C@H](C(C)C)NC(=O)[C@H](Cc2ccccc2)N(C)C(=O)[C@H](C(C)C)NC(=O)[C@H](C)NC(=O)CSC[C@@H](C(=O)NCCOCCOCCOCCOCCC(N)=O)NC(=O)[C@H](Cc2ccc(O)cc2)N(C)C(=O)[C@H](Cc2ccc(O)cc2)NC(=O)[C@H](CCCNC(=N)N)NC(=O)[C@H](CCCNC(=N)N)NC(=O)[C@H]([C@@H](C)CC)NC1=O [compound 46],1 to 100
8,CC[C@H](C)[C@@H]1NC(=O)[C@H](Cc2ccc(OCC(=O)O)cc2)NC(=O)[C@H](Cc2ccc(O)cc2)NC(=O)[C@H](CC(N)=O)NC(=O)[C@H](Cc2cn(CC(=O)O)c3ccccc23)NC(=O)[C@H](C(C)C)NC(=O)[C@H](Cc2cccc(Cl)c2)N(C)C(=O)[C@H](C(C)C)NC(=O)[C@H](C)NC(=O)CSC[C@@H](C(=O)NCC(=O)NCCOCCOCCOCCOCCOCCOCCOCCOCCC(=O)N[C@@H](CCCCN=[N+]=[N-])C(N)=O)NC(=O)[C@H](Cc2ccc(O)cc2)N(C)C(=O)[C@H](Cc2ccccc2)NC(=O)[C@H](CCCNC(=N)N)NC(=O)[C@H](CCCNC(=N)N)NC(=O)[C@H]([C@@H](C)CC)NC1=O [compound 47],1 to 100
9,CC[C@H](C)[C@@H]1NC(=O)[C@H](Cc2cccnc2)NC(=O)[C@H](Cc2ccc(O)cc2)NC(=O)[C@H](CC(N)=O)NC(=O)[C@H](Cc2cn(CC(=O)O)c3ccccc23)NC(=O)[C@H](C(C)C)NC(=O)[C@H](Cc2cccc(Cl)c2)N(C)C(=O)[C@H](C(C)C)NC(=O)[C@H](C)NC(=O)CSC[C@@H](C(=O)NCCOCCOCCOCCOCCC(N)=O)NC(=O)[C@H](Cc2ccc(O)cc2)N(C)C(=O)[C@H](Cc2ccncc2)NC(=O)[C@H](CCCNC(=N)N)NC(=O)[C@H](CCCNC(=N)N)NC(=O)[C@H]([C@@H](C)CC)NC1=O [compound 48] ({CH2CO}-AV[NMePhe(3-Cl)]V[Trp(1-CH2COOH)]NY[3Pal]IIRR[4Pal][NMeY]C[PEG4]-NH2; thioether N-15),1 to 100
